Experiment [1] deals with T1, Histone deacetylase 11 (Homo sapiens) (UniProt Q96DB2).
T1 sequence (whole entry): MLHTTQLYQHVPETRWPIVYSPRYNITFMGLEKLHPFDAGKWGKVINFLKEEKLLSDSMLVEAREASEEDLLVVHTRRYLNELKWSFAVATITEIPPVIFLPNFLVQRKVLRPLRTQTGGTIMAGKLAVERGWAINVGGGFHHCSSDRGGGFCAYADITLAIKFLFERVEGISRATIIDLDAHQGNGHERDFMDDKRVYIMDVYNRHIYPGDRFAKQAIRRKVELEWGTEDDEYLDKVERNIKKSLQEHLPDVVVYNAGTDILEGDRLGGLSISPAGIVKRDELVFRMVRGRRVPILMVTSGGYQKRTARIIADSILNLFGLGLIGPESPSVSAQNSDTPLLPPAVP
The experiment is described as follows: Inhibition of recombinant C-terminal His-tagged HDAC11 (unknown origin) expressed in baculovirus infected Sf9 cells at 2 uM using Ac-Arg-Gly-Lys(Ac)-AMC as substrate pretreated for 3 hrs followed by substrate addition after 30 mins by fluorometric method relative to control.

The target of experiment [2] is T1, Histone deacetylase 11 (Homo sapiens). The experiment is described as follows: Inhibition of recombinant C-terminal His-tagged HDAC11 (unknown origin) expressed in baculovirus infected Sf9 cells at 2 uM using Ac-Arg-Gly-Lys(Ac)-AMC as substrate pretreated for 3 hrs followed by substrate addition after 30 mins in presence of 0.2 uM SAHA by fluorometric method relative to control.

The target in experiment [3] is T2, Histone deacetylase 11 (Homo sapiens, UniProt Q96DB2).
T2 sequence (Q96DB2 whole entry): T1 sequence (whole entry)
The experiment is described as follows: Inhibition of recombinant C-terminal His-tagged HDAC11 (unknown origin) expressed in baculovirus infected Sf9 cells using Ac-Arg-Gly-Lys(Ac)-AMC as substrate pretreated for 3 hrs followed by substrate addition after 30 mins by fluorometric method.

Experiment [4] deals with T1, Histone deacetylase 11 (Homo sapiens). The experiment is described as follows: Inhibition of recombinant C-terminal His-tagged HDAC11 (unknown origin) expressed in baculovirus infected Sf9 cells at 5 uM using Ac-Arg-Gly-Lys(Ac)-AMC as substrate pretreated followed by substrate addition after 30 mins by fluorometric method. Particulars: TDE = time-dependent effect.
Experiment [5] deals with T2, Histone deacetylase 11. Kind of experiment: Inhibition of recombinant C-terminal His-tagged HDAC11 (unknown origin) expressed in baculovirus infected Sf9 cells using Ac-Arg-Gly-Lys(Ac)-AMC as substrate pretreated for 3 hrs followed by substrate addition after 30 mins in presence of 0.2 uM SAHA by fluorometric method.

Where only a bound is given, the exact number is not on record here.

With `Nc1ccccc1NC(=O)/C=C/c1cn([C@@H]2C[C@H](C(=O)O)N(CCc3ccccc3)C2)nn1`, the inhibition in experiment [1] was under 0%; in experiment [2] it was under 10%.
Turning to `Nc1ccccc1NC(=O)/C=C/c1cn([C@@H]2C[C@H](CO)N(CCCc3ccccc3)C2)nn1`, the inhibition in experiment [1] was under 0%; in experiment [2], 12%.
`Nc1ccccc1NC(=O)/C=C/c1cn([C@@H]2C[C@@H](C(=O)O)N(Cc3ccccc3)C2)nn1`: the inhibition is under 0% in experiment [1] and under 10% in experiment [2].
The like results for `Nc1ccccc1NC(=O)/C=C/c1cn([C@@H]2C[C@H](CO)N(CCc3ccccc3)C2)nn1` were, in that order, under 0% and under 10%.
As to `Nc1ccccc1NC(=O)/C=C/c1cn([C@@H]2C[C@H](C(=O)O)N(Cc3ccccc3)C2)nn1`, in experiment [2], the inhibition was under 10%.
Regarding `Nc1ccccc1NC(=O)/C=C/c1cn([C@H]2C[C@H](CO)N(CCc3ccccc3)C2)nn1`, the inhibition in experiment [1] and in experiment [2] was under 10% throughout.
On to `Nc1ccccc1NC(=O)/C=C/c1cn([C@H]2C[C@@H](CO)N(Cc3ccccc3)C2)nn1`, for which the inhibition in experiment [1] stood at 31%; in experiment [2], 36%. At Histone deacetylase 11 [3], the half-inhibitory concentration (IC50) stood at 2.14 µM.
For the compound `Nc1ccccc1NC(=O)/C=C/c1cn([C@H]2C[C@@H](C(=O)O)N(CCCc3ccccc3)C2)nn1`, the inhibition was under 0% in experiment [1] and under 10% in experiment [2].
The matching figures for `Nc1ccccc1NC(=O)/C=C/c1cn([C@H]2C[C@@H](CO)N(CCCc3ccccc3)C2)nn1`: under 0% and 19%.
Consider `Nc1ccccc1NC(=O)/C=C/c1cn([C@@H]2C[C@H](CO)N(Cc3ccccc3)C2)nn1`, for which the figures for the inhibition in experiment [1] and in experiment [2] were under 10% and 14%, respectively.
As for `Nc1ccccc1NC(=O)/C=C/c1cn([C@@H]2C[C@@H](CO)N(CCCc3ccccc3)C2)nn1`, the inhibition in experiment [1] was under 10%; in experiment [2], 13%.
The matching figures for `Nc1ccccc1NC(=O)/C=C/c1cn([C@H]2C[C@@H](C(=O)O)N(Cc3ccccc3)C2)nn1`: under 0% and under 10%.
As for `Nc1ccccc1NC(=O)/C=C/c1cn([C@H]2C[C@H](C(=O)O)N(CCc3ccccc3)C2)nn1`, the inhibition was under 0% in experiment [1] and under 10% in experiment [2].
With `Nc1ccccc1NC(=O)/C=C/c1cn([C@H]2C[C@@H](C(=O)O)N(CCc3ccccc3)C2)nn1`, the inhibition in experiment [2] was under 10%.
With `Nc1ccccc1NC(=O)/C=C/c1cn([C@H]2C[C@H](C(=O)O)N(CCCc3ccccc3)C2)nn1`, the inhibition was under 0% in experiment [1] and under 10% in experiment [2].
`Nc1ccccc1NC(=O)/C=C/c1cn([C@H]2C[C@@H](CO)N(CCc3ccccc3)C2)nn1`: the results for the inhibition in experiment [1] and in experiment [2] were under 10% and 20%, respectively.
The like results for `Nc1ccccc1NC(=O)/C=C/c1cn([C@@H]2C[C@@H](C(=O)O)N(CCCc3ccccc3)C2)nn1` were, in that order, under 10% and under 10%.
The matching figures for `Nc1ccccc1NC(=O)/C=C/c1cn([C@H]2C[C@H](CO)N(CCCc3ccccc3)C2)nn1`: under 10% and 16%.
Turning to `Nc1ccccc1NC(=O)/C=C/c1cn([C@H]2C[C@H](C(=O)O)N(Cc3ccccc3)C2)nn1`, the inhibition was 12% in experiment [1] and under 10% in experiment [2].
Turning to `Nc1ccccc1NC(=O)c1ccc(CNC(=O)OCc2cccnc2)cc1` [ENTINOSTAT], the inhibition entry in experiment [4] was “Tde”; in experiment [1], 67%; in experiment [2] it was 59%. The half-inhibitory concentration (IC50) was 1.3 µM on Histone deacetylase 11 [5] and 0.9 µM on Histone deacetylase 11 [3].
For the compound `Nc1ccccc1NC(=O)/C=C/c1cn([C@@H]2C[C@@H](CO)N(Cc3ccccc3)C2)nn1`, the inhibition is under 10% in experiment [1] and 22% in experiment [2].
Regarding `Nc1ccccc1NC(=O)/C=C/c1cn([C@@H]2C[C@H](C(=O)O)N(CCCc3ccccc3)C2)nn1`, the inhibition in experiment [1] and in experiment [2] was under 10% each time.
With `Nc1ccccc1NC(=O)/C=C/c1cn([C@@H]2C[C@@H](C(=O)O)N(CCc3ccccc3)C2)nn1`, the inhibition in experiment [1] and in experiment [2] was under 10% each time.
For `Nc1ccccc1NC(=O)/C=C/c1cn([C@@H]2C[C@@H](CO)N(CCc3ccccc3)C2)nn1`, the inhibition in experiment [2] was under 10%.
For the compound `Nc1ccccc1NC(=O)/C=C/c1cn([C@H]2C[C@H](CO)N(Cc3ccccc3)C2)nn1`, the figures for the inhibition in experiment [1] and in experiment [2] were under 0% and 14%, respectively.

For the origin of these results see ChEMBL document CHEMBL4020776, “Stabilizing HDAC11 with SAHA to assay slow-binding benzamide inhibitors” (Bioorg Med Chem Lett, 2017).
